# In patent publication US11655258B2, “Heterocycle derivatives as pesticides” (BAYER AKTIENGESELLSCHAFT, priority 2017, dated 2023):
# Like-named read-outs stand apart in the source and are kept apart here.
# Columns and labels:
# [1] = test system: Myzus persicae; assay: Myzus persicae oral test; assay type: in vivo; settings: 120 h, read-out: efficacy
# Protocol: Myzus persicae Oral Test • Solvent: 100 parts by weight of acetone
# To produce a suitable preparation of active compound, 1 part by weight of active compound is dissolved using the specified parts by weight of solvent and made up with water until the desired concentration is attained.
# 50 μl of the active compound preparation are transferred into microtitre plates and made up to a final volume of 200 μl with 150 μl of IPL41 insect medium (33%+15% sugar). Subsequently, the plates are sealed with parafilm, which a mixed population of green peach aphids (Myzus persicae) within a second microtitre plate is able to puncture and imbibe the solution through.
# (§1) After 5 days, the efficacy in % is determined. 100% means that all the aphids have been killed; 0% means that no aphids have been killed.
# [2] = test system: Myzus persicae; assay: Myzus persicae spray test (Chinese cabbage leaf discs); assay type: in vivo; settings: foliar, 120 h, read-out: efficacy
# Protocol: Myzus persicae Spray Test • Solvent: 78 parts by weight of acetone • 1.5 parts by weight of dimethylformamide • Emulsifier: alkylaryl polyglycol ether
# (§2) To produce a suitable active compound preparation, 1 part by weight of active compound is dissolved using the stated parts by weight of solvent and made up with water containing an emulsifier concentration of 1000 ppm until the desired concentration is attained. To produce further test concentrations, the formulation is diluted with emulsifier-containing water.
# Discs of Chinese cabbage leaves (Brassica pekinensis) infested by all stages of the green peach aphid (Myzus persicae) are sprayed with an active compound formulation of the desired concentration.
# as §1
# [3] = log P by HPLC on reversed-phase column (EEC Directive 79/831 Annex V.A8); assay type: physicochemical; settings: reversed-phase HPLC column (C18); pH 7.8, 0.001 molar aqueous ammonium bicarbonate/acetonitrile, 55° C.; read-out: log P (neutral)
# Protocol: The log P values are measured according to EEC Directive 79/831 Annex V.A8 by HPLC (high-performance liquid chromatography) on a reversed-phase column (C 18). Temperature: 55° C.
# The LC-MS determination in the neutral range is effected at pH 7.8 with 0.001 molar aqueous ammonium bicarbonate solution and acetonitrile as mobile phases; linear gradient from 10% acetonitrile to 95% acetonitrile. Called log P (neutral) in the table.
# Calibration is carried out using unbranched alkan-2-ones (having 3 to 16 carbon atoms) with known Log P values (Log P values determined on the basis of the retention times by linear interpolation between two successive alkanones).
# [4] = test system: Phaedon cochleariae; assay: Phaedon cochleariae spray test; assay type: in vivo; settings: 168 h, read-out: efficacy; for pest or weed control at 20 g/ha: application rate 20 g/ha
# Protocol: Phaedon cochleariae—Spray Test • Solvent: 78.0 parts by weight of acetone • 1.5 parts by weight of dimethylformamide • Emulsifier: alkylaryl polyglycol ether
# as §2
# Discs of Chinese cabbage leaves (Brassica pekinensis) are sprayed with an active compound formulation of the desired concentration and, after drying, populated with larvae of the mustard beetle (Phaedon cochleariae).
# After 7 days, the efficacy in % is determined. 100% means that all the beetle larvae have been killed; 0% means that no beetle larvae have been killed.
# [5] = test system: Myzus persicae; assay: Myzus persicae spray test (MYZUPE S), bell pepper plants; assay type: in vivo; settings: 144 h, 6 dat, read-out: % efficacy
# Protocol: Myzus persicae—Spray Test (MYZUPE S) • Solvent: 14 parts by weight of dimethylformamide • Emulsifier: alkylaryl polyglycol ether
# as §2, with “water. If the addition of ammonium salts or/and penetrants is required, these are each added in a concentration of 1000 ppm to the formulation solution.” for “water.”
# Bell pepper plants (Capsicum annuum) severely infested with the green peach aphid (Myzus persicae) are treated by spraying with the active compound formulation in the desired concentration.
# After the desired time, the kill in % is determined. 100% means that all the animals have been killed; 0% means that no animals have been killed.
# [6] = test system: Aphis gossypii; assay: Aphis gossypii spray test (APHIGO); assay type: in vivo; settings: 144 h, 6 dat, read-out: % efficacy
# Protocol: Aphis gossypii Spray Test (APHIGO) • Solvent: 14 parts by weight of dimethylformamide • Emulsifier: alkylaryl polyglycol ether
# as §2, with “water. If the addition of ammonium salts or/and penetrants is required, these are each added in a concentration of 1000 ppm to the formulation solution.” for “water.”
# Cotton plants (Gossypium hirsutum) heavily infested by the cotton aphid (Aphis gossypii) are sprayed with an active compound formulation of the desired concentration.
# After the desired time, the kill in % is determined. 100% means that all the aphids have been killed; 0% means that no aphids have been killed.
# [7] = test system: Nilaparvata lugens; assay: Nilaparvata lugens spray test (NILALU); assay type: in vivo; settings: 96 h, 4 dat, read-out: % efficacy
# Protocol: Nilaparvata lugens—Spray Test (NILALU) • Solvent: 52.5 parts by weight of acetone • 7 parts by weight of dimethylformamide • Emulsifier: alkylaryl polyglycol ether
# as §2, with “water. If the addition of ammonium salts or/and penetrants is required, these are each added in a concentration of 1000 ppm to the formulation solution.” for “water.”
# Rice plants (Oryza sativa) are sprayed with an active ingredient formulation of the desired concentration and then populated with larvae of the brown planthopper (Nilaparvata lugens).
# After the desired period of time, the efficacy in % is determined. 100% means that all of the planthoppers have been killed; 0% means that none of the planthoppers have been killed.
# [8] = test system: Spodoptera frugiperda; assay: Spodoptera frugiperda spray test; assay type: in vivo; settings: application rate 100 g/ha, after 7 days
# Protocol: Spodoptera frugiperda—Spray Test • Solvent: 78.0 parts by weight of acetone • 1.5 parts by weight of dimethylformamide • Emulsifier: alkylaryl polyglycol ether
# as §2
# Leaf discs of maize (Zea mays) are sprayed with an active compound formulation of the desired concentration and, after drying, populated with caterpillars of the fall armyworm (Spodoptera frugiperda).
# After 7 days, the efficacy in % is determined. 100% means that all the caterpillars have been killed; 0% means that no caterpillar has been killed.
# [9] = test system: Myzus persicae; assay: Myzus persicae drench test (MYZUPE D), savoy cabbage; assay type: in vivo; settings: soil, 240 h, 10 dat, read-out: % efficacy
# Protocol: Myzus persicae—Drench Test (MYZUPE D) • Solvent: 7 parts by weight of dimethylformamide • Emulsifier: 2 parts by weight of alkylaryl polyglycol ether
# To produce a suitable active compound preparation, 1 part by weight of active compound is mixed with the specified amounts of solvent and emulsifier, and the concentrate is diluted with water to the desired concentration, it being necessary to include the volume of soil which is drenched in the calculation. It should be ensured that a concentration of 40 ppm of emulsifier in the soil is not exceeded. To produce further test concentrations, water is used for dilution.
# Savoy cabbage (Brassica oleracea) in pots with soil and infested by all stages of the green peach aphid (Myzus persicae) is watered with an active compound preparation of the desired concentration.
# After the desired period of time, the efficacy in % is determined. 100% means that all the aphids have been killed; 0% means that no aphids have been killed.
# [10] = test system: Ctenocephalides felis; assay: Ctenocephalides felis oral test; assay type: in vivo; settings: application rate 100 ppm in citrated cattle blood, after 2 days
# Protocol: Ctenocephalides felis—Oral Test • Solvent: dimethyl sulfoxide
# To produce a suitable active compound formulation, 10 mg of active compound are mixed with 0.5 ml of dimethyl sulfoxide. Dilution with citrated cattle blood gives the desired concentration.
# About 20 unfed adult cat fleas (Ctenocephalides felis) are placed into a chamber which is closed at the top and bottom with gauze. A metal cylinder whose bottom end is closed with parafilm is placed onto the chamber. The cylinder contains the blood/active compound formulation, which can be imbibed by the fleas through the parafilm membrane.
# After 2 days, the kill in % is determined. 100% means that all of the fleas have been killed; 0% means that none of the fleas have been killed.
# [11] = test system: Lucilia cuprina; assay: Lucilia cuprina test; assay type: in vivo; settings: application rate 100 ppm, L1 larvae, after 2 days
# Protocol: Lucilia cuprina Test • Solvent: dimethyl sulfoxide
# To produce a suitable active compound formulation, 10 mg of active compound are mixed with 0.5 ml of dimethyl sulfoxide, and the concentrate is diluted with water to the desired concentration.
# About 20 L1 larvae of the Australian sheep blowfly (Lucilia cuprina) are transferred into a test vessel containing minced horsemeat and the active compound formulation of the desired concentration.
# After 2 days, the kill in % is determined. 100% means that all the larvae have been killed; 0% means that no larvae have been killed.
# [12] = application rate 4 ppm, after 5 days
# [13] = application rate 100 g/ha, after 5 days
# [14] = application rate 100 g/ha, after 7 days
compound,measurement,setting,value
"CCS(=O)(=O)c1cc2ccccc2nc1-c1nc2cnc(C(F)(F)F)cn2n1 [Example I-02, 3-Ethylsulfonyl-2-[6-(trifluoromethyl)-[1,2,4]triazolo[1,5-a]pyrazin-2-yl]quinoline]",pest or weed control at 4 ppm,[1]; [12],90%
same,pest or weed control at 100 g/ha,[2]; [13],100%
same,chromatographic logP,[3],2.44
same,pest or weed control at 100 g/ha,[4]; [14],100%
CCS(=O)(=O)c1c(-c2nc3ccc(C(F)(F)F)cn3n2)nc2cc(C3CC3)ccn12 [Example I-10],pest or weed control at 4 ppm,[1]; [12],100%
same,Emax at 20 ppm,[5],100%
same,aphid kill at 20 ppm,[6],99%
same,pest or weed control at 100 g/ha,[2]; [13],90%
same,Emax at 100 g/ha,[7],100%
same,efficacy,[8],83%
same,Emax at 20 ppm,[9],90%
same,pest or weed control at 20 g/ha,[4]; after 7 days,83%
CCS(=O)(=O)c1c(-c2nc3ccc(C(F)(F)F)cn3n2)ncc2ccccc12 [Example I-15],pest or weed control at 4 ppm,[1]; [12],100%
same,pest or weed control at 100 g/ha,[2]; [13],90%
"CCS(=O)(=O)c1c(C(=O)OC)nc2cc(C(F)(F)F)ccn12 [Methyl 3-(ethylsulfonyl)-7-(trifluoromethyl)imidazo[1,2-a]pyridine-2-carboxylate]",chromatographic logP,[3],2.15
CCS(=O)(=O)c1c(-c2nc3ccc(C(F)(F)F)cn3n2)nc2cc(NC(C)=O)ccn12 [Example I-07],pest or weed control at 4 ppm,[1]; [12],100%
same,efficacy (kill),[10],100%
CCS(=O)(=O)c1c(-c2nc3ccc(C(F)(F)F)cn3n2)nc2cc(C(=O)OC)ccn12 [Example I-11],pest or weed control at 4 ppm,[1]; [12],100%
"CCS(=O)(=O)c1c(-c2nc3cc(C(F)(F)F)ccc3n2C)nc2cc(C(F)(F)F)ccn12 [Example I-34, reference compound]",Emax at 20 ppm,[5],0%
same,aphid kill at 20 ppm,[6],0%
same,Emax at 100 g/ha,[7],0%
same,Emax at 500 g/ha,[7]; 500 g/ha,0%
same,Emax at 20 ppm,[9],0%
"CCSc1c(C(=O)OC)nc2cc(C(F)(F)F)ccn12 [Methyl 3-(ethylsulfanyl)-7-(trifluoromethyl)imidazo[1,2-a]pyridine-2-carboxylate]",chromatographic logP,[3],2.56
CCS(=O)(=O)c1c(-c2nc3ccc(C(F)(F)F)cn3n2)nc2n1CCCC2 [Example I-04],pest or weed control at 4 ppm,[1]; [12],100%
"CCS(=O)(=O)c1c(C(N)=O)nc2cc(C(F)(F)F)ccn12 [3-(Ethylsulfonyl)-7-(trifluoromethyl)imidazo[1,2-a]pyridine-2-carboxamide]",chromatographic logP,[3],1.57
CCS(=O)(=O)c1cc2ccccc2nc1-c1nc2ccc(C(F)(F)F)cn2n1 [Example I-03],pest or weed control at 4 ppm,[1]; [12],100%
same,pest or weed control at 100 g/ha,[2]; [13],90%
same,pest or weed control at 100 g/ha,[4]; [14],100%
CCS(=O)(=O)c1c(-c2nc3ccc(C(F)(F)F)cn3n2)nc2cc(OCC(F)(F)F)ccn12 [Example I-06],pest or weed control at 4 ppm,[1]; [12],100%
same,Emax at 20 ppm,[5],99%
same,Emax at 20 ppm,[6],95%
same,pest or weed control at 20 g/ha,[4]; after 7 days,100%
same,pest or weed control at 100 g/ha,[4]; [14],100%
N=C(Nc1cnc(C(F)(F)F)cn1)c1nc2ccccc2cc1Br [3-Bromo-N-[5-(trifluoromethyl)pyrazin-2-yl]quinoline-2-carboxamidine],chromatographic logP,[3],3.01
CCS(=O)(=O)c1c(-c2nc3ccc(C(F)(F)F)cn3n2)nc2cc(NC(=O)OC)ccn12 [Example I-08],pest or weed control at 4 ppm,[1],100%
same,efficacy (kill),[10],90%
same,pest or weed control at 100 g/ha,[2],100%
same,efficacy (kill),[11],100%
same,pest or weed control at 100 g/ha,[4],83%
CCS(=O)(=O)c1c(-c2nc3cnc(C(F)(F)F)cn3n2)ncc2ccccc12 [Example I-16],pest or weed control at 4 ppm,[1]; [12],100%
same,pest or weed control at 100 g/ha,[2]; [13],100%
"FC(F)(F)c1cn2nc(-c3nc4ccccc4cc3Br)nc2cn1 [3-Bromo-2-[6-(trifluoromethyl)-[1,2,4]triazolo[1,5-a]pyrazin-2-yl]quinoline]",chromatographic logP,[3],2.98
CCS(=O)(=O)c1c(-c2nc3ccc(C(F)(F)F)cn3n2)nc2cc(S(=O)(=O)C3CC3)ccn12 [Example I-13],pest or weed control at 4 ppm,[1]; [12],100%
same,Emax at 20 ppm,[5],95%
same,Emax at 20 ppm,[6],99%
same,pest or weed control at 100 g/ha,[2]; [13],100%
same,Emax at 100 g/ha,[7],100%
same,Emax at 20 ppm,[9],100%
same,pest or weed control at 20 g/ha,[4]; after 7 days,83%
same,pest or weed control at 100 g/ha,[4]; [14],100%
"CCS(=O)(=O)c1c(C#N)nc2cc(C(F)(F)F)ccn12 [3-(Ethylsulfonyl)-7-(trifluoromethypimidazo[1,2-a]pyridine-2-carbonitrile]",chromatographic logP,[3],2.28
